Assay results as given in the supplement of paper PMC10307832.

Tests used:
Experiment in all cases: relative viability (nuclei count vs DMSO), 5 days (fraction); higher = more cells survive
[1] = compound: O=C(/C=C/c1cccnc1)NCCCCC1CCN(C(=O)c2ccccc2)CC1 [Daporinad] + C[C@@H](Oc1cc(-c2cnn(C3CCNCC3)c2)cnc1N)c1c(Cl)ccc(F)c1Cl [Crizotinib] (partner 1 µM)
In short: (§1)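 Lung cancer cell lines were pin-tool dosed in 1536-well plates on the day after seeding, with either a lone drug or a fixed anchor-drug dose plus five library-drug doses (not always all listed) in √10 steps. Nuclei were counted on 4× images after 5 days. Relative viability is the ratio of treated-well to vehicle-well nuclei counts, with each value a median of duplicate plates.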

[2] = compound: COc1cc(Nc2ncc(F)c(Nc3ccc4c(n3)NC(=O)C(C)(C)O4)n2)cc(OC)c1OC [R406] + O=C(c1cc(Cc2n[nH]c(=O)c3ccccc23)ccc1F)N1CCN(C(=O)C2CC2)CC1 [Olaparib] (partner 8 µM)
In short: as §1

[3] = compound: O=C(/C=C/c1cccnc1)NCCCCC1CCN(C(=O)c2ccccc2)CC1 [Daporinad] + COc1cccc2cc(-c3nc([C@H]4CC[C@H](C(=O)O)CC4)n4ncnc(N)c34)[nH]c12 [OSI-027] (partner 0.5 µM)
In short: as §1

[4] = compound: O=C(/C=C/c1cccnc1)NCCCCC1CCN(C(=O)c2ccccc2)CC1 [Daporinad] + CC(=O)Nc1cccc(-n2c(=O)n(C3CC3)c(=O)c3c(Nc4ccc(I)cc4F)n(C)c(=O)c(C)c32)c1 [Trametinib] (partner 0.02 µM)
In short: as §1

Cell Line: EKVX
- relative viability ([1]; first compound 0.0005 µM): 0.891
- relative viability ([1]; first compound 0.001581 µM): 1.01
- relative viability ([1]; first compound 0.005 µM): 1.01
- relative viability ([1]; first compound 0.01581 µM): 0.993
- relative viability ([2]; first compound 0.08 µM): 0.928
- relative viability ([2]; first compound 0.253 µM): 0.971
- relative viability ([2]; first compound 0.8 µM): 0.995
- relative viability ([2]; first compound 2.53 µM): 0.717
- relative viability ([2]; first compound 8 µM): 0.655
- relative viability ([3]; first compound 0.0005 µM): 0.692
- relative viability ([3]; first compound 0.001581 µM): 0.738
- relative viability ([3]; first compound 0.005 µM): 0.683
- relative viability ([3]; first compound 0.01581 µM): 0.806
- relative viability ([4]; first compound 0.0005 µM): 0.288
- relative viability ([4]; first compound 0.001581 µM): 0.329
- relative viability ([4]; first compound 0.005 µM): 0.43
- relative viability ([4]; first compound 0.01581 µM): 0.372

Cell Line: EMC-BAC-2
- relative viability ([1]; first compound 0.0005 µM): 0.743
- relative viability ([1]; first compound 0.001581 µM): 0.763
- relative viability ([1]; first compound 0.005 µM): 0.527
- relative viability ([1]; first compound 0.01581 µM): 0.247
- relative viability ([2]; first compound 0.08 µM): 0.46
- relative viability ([2]; first compound 0.253 µM): 0.547
- relative viability ([2]; first compound 0.8 µM): 0.468
- relative viability ([2]; first compound 2.53 µM): 0.393
- relative viability ([2]; first compound 8 µM): 0.307
- relative viability ([3]; first compound 0.0005 µM): 0.393
- relative viability ([3]; first compound 0.001581 µM): 0.435
- relative viability ([3]; first compound 0.005 µM): 0.326
- relative viability ([3]; first compound 0.01581 µM): 0.202
- relative viability ([4]; first compound 0.0005 µM): 0.868
- relative viability ([4]; first compound 0.001581 µM): 0.935
- relative viability ([4]; first compound 0.005 µM): 0.8
- relative viability ([4]; first compound 0.01581 µM): 0.433

Cell Line: EPLC-272H
- relative viability ([1]; first compound 0.0005 µM): 0.884
- relative viability ([1]; first compound 0.001581 µM): 1.03
- relative viability ([1]; first compound 0.005 µM): 1.01
- relative viability ([1]; first compound 0.01581 µM): 1.11
- relative viability ([2]; first compound 0.08 µM): 0.8
- relative viability ([2]; first compound 0.253 µM): 0.754
- relative viability ([2]; first compound 0.8 µM): 0.707
- relative viability ([2]; first compound 2.53 µM): 0.325
- relative viability ([2]; first compound 8 µM): 0.112
- relative viability ([3]; first compound 0.0005 µM): 0.243
- relative viability ([3]; first compound 0.001581 µM): 0.298
- relative viability ([3]; first compound 0.005 µM): 0.316
- relative viability ([3]; first compound 0.01581 µM): 0.365
- relative viability ([4]; first compound 0.0005 µM): 0.295
- relative viability ([4]; first compound 0.001581 µM): 0.317
- relative viability ([4]; first compound 0.005 µM): 0.284
- relative viability ([4]; first compound 0.01581 µM): 0.31

Cell Line: H3255
- relative viability ([1]; first compound 0.0005 µM): 0.782
- relative viability ([1]; first compound 0.001581 µM): 0.937
- relative viability ([1]; first compound 0.005 µM): 0.853
- relative viability ([1]; first compound 0.01581 µM): 0.864
- relative viability ([2]; first compound 0.08 µM): 0.556
- relative viability ([2]; first compound 0.253 µM): 0.607
- relative viability ([2]; first compound 0.8 µM): 0.545
- relative viability ([2]; first compound 2.53 µM): 0.512
- relative viability ([2]; first compound 8 µM): 0.475
- relative viability ([3]; first compound 0.0005 µM): 0.476
- relative viability ([3]; first compound 0.001581 µM): 0.596
- relative viability ([3]; first compound 0.005 µM): 0.587
- relative viability ([3]; first compound 0.01581 µM): 0.633
- relative viability ([4]; first compound 0.0005 µM): 0.557
- relative viability ([4]; first compound 0.001581 µM): 0.637
- relative viability ([4]; first compound 0.005 µM): 0.645
- relative viability ([4]; first compound 0.01581 µM): 0.71

Cell Line: HARA
- relative viability ([1]; first compound 0.0005 µM): 1.05
- relative viability ([1]; first compound 0.001581 µM): 1.07
- relative viability ([1]; first compound 0.005 µM): 1.07
- relative viability ([1]; first compound 0.01581 µM): 0.291
- relative viability ([2]; first compound 0.08 µM): 0.826
- relative viability ([2]; first compound 0.253 µM): 0.496
- relative viability ([2]; first compound 0.8 µM): 0.705
- relative viability ([2]; first compound 2.53 µM): 0.779
- relative viability ([2]; first compound 8 µM): 0.17
- relative viability ([3]; first compound 0.0005 µM): 0.488
- relative viability ([3]; first compound 0.001581 µM): 0.56
- relative viability ([3]; first compound 0.005 µM): 0.55
- relative viability ([3]; first compound 0.01581 µM): 0.355
- relative viability ([4]; first compound 0.0005 µM): 0.833
- relative viability ([4]; first compound 0.001581 µM): 0.761
- relative viability ([4]; first compound 0.005 µM): 0.627
- relative viability ([4]; first compound 0.01581 µM): 0.403

Cell Line: HCC-15
- relative viability ([1]; first compound 0.0005 µM): 0.785
- relative viability ([1]; first compound 0.001581 µM): 0.853
- relative viability ([1]; first compound 0.005 µM): 0.907
- relative viability ([1]; first compound 0.01581 µM): 0.831
- relative viability ([2]; first compound 0.08 µM): 0.653
- relative viability ([2]; first compound 0.253 µM): 0.839
- relative viability ([2]; first compound 0.8 µM): 0.675
- relative viability ([2]; first compound 2.53 µM): 0.725
- relative viability ([2]; first compound 8 µM): 0.505
- relative viability ([3]; first compound 0.0005 µM): 0.669
- relative viability ([3]; first compound 0.001581 µM): 0.807
- relative viability ([3]; first compound 0.005 µM): 0.789
- relative viability ([3]; first compound 0.01581 µM): 0.779
- relative viability ([4]; first compound 0.0005 µM): 0.339
- relative viability ([4]; first compound 0.001581 µM): 0.429
- relative viability ([4]; first compound 0.005 µM): 0.39
- relative viability ([4]; first compound 0.01581 µM): 0.418

Cell Line: HCC-44
- relative viability ([1]; first compound 0.0005 µM): 0.768
- relative viability ([1]; first compound 0.001581 µM): 0.787
- relative viability ([1]; first compound 0.005 µM): 0.899
- relative viability ([1]; first compound 0.01581 µM): 0.747
- relative viability ([2]; first compound 0.08 µM): 0.95
- relative viability ([2]; first compound 0.253 µM): 1
- relative viability ([2]; first compound 0.8 µM): 0.954
- relative viability ([2]; first compound 2.53 µM): 0.989
- relative viability ([2]; first compound 8 µM): 1.06
- relative viability ([3]; first compound 0.0005 µM): 0.481
- relative viability ([3]; first compound 0.001581 µM): 0.608
- relative viability ([3]; first compound 0.005 µM): 0.462
- relative viability ([3]; first compound 0.01581 µM): 0.639
- relative viability ([4]; first compound 0.0005 µM): 1.02
- relative viability ([4]; first compound 0.001581 µM): 1.15
- relative viability ([4]; first compound 0.005 µM): 1.08
- relative viability ([4]; first compound 0.01581 µM): 1.07

Cell Line: HCC-78
- relative viability ([1]; first compound 0.0005 µM): 0.333
- relative viability ([1]; first compound 0.001581 µM): 0.362
- relative viability ([1]; first compound 0.005 µM): 0.331
- relative viability ([1]; first compound 0.01581 µM): 0.428
- relative viability ([2]; first compound 0.08 µM): 0.83
- relative viability ([2]; first compound 0.253 µM): 0.896
- relative viability ([2]; first compound 0.8 µM): 0.848
- relative viability ([2]; first compound 2.53 µM): 0.656
- relative viability ([2]; first compound 8 µM): 0.394
- relative viability ([3]; first compound 0.0005 µM): 0.378
- relative viability ([3]; first compound 0.005 µM): 0.383
- relative viability ([3]; first compound 0.01581 µM): 0.368
- relative viability ([4]; first compound 0.0005 µM): 0.68
- relative viability ([4]; first compound 0.001581 µM): 0.821
- relative viability ([4]; first compound 0.005 µM): 0.71
- relative viability ([4]; first compound 0.01581 µM): 1.1

Cell Line: HCC-366
- relative viability ([1]; first compound 0.0005 µM): 0.696
- relative viability ([1]; first compound 0.001581 µM): 0.628
- relative viability ([1]; first compound 0.005 µM): 0.864
- relative viability ([1]; first compound 0.01581 µM): 0.634
- relative viability ([2]; first compound 0.08 µM): 0.33
- relative viability ([2]; first compound 0.253 µM): 0.391
- relative viability ([2]; first compound 0.8 µM): 0.349
- relative viability ([2]; first compound 2.53 µM): 0.316
- relative viability ([2]; first compound 8 µM): 0.0913
- relative viability ([3]; first compound 0.0005 µM): 0.961
- relative viability ([3]; first compound 0.001581 µM): 0.907
- relative viability ([3]; first compound 0.005 µM): 1.22
- relative viability ([3]; first compound 0.01581 µM): 1.03
- relative viability ([4]; first compound 0.0005 µM): 0.332
- relative viability ([4]; first compound 0.005 µM): 0.376
- relative viability ([4]; first compound 0.01581 µM): 0.409
